Tests used:
[1] = test system: anti-Aβ antibodies in macaque antisera; assay: Specificity analysis (10-mer peptide ELISA) of antisera from Cynomolgus macaques; format: binding
[2] = test system: anti-Aβ antibodies in sera of vaccinated patients; assay: Epitope mapping, competitive binding inhibition EIA with patient sera (10-mer peptides, IC50); design: species or system human; Epitope mapping, fine specificity analysis, serum of subject P210: unit not given here; conditions: for Epitope mapping, fine specificity analysis, serum of subject P101: serum 16 wpi of vaccinated patient P101; for Epitope mapping, fine specificity analysis, serum of subject P102: serum 16 wpi of vaccinated patient P102; for Epitope mapping, fine specificity analysis, serum of subject P103: serum 16 wpi of vaccinated patient P103; for Epitope mapping, fine specificity analysis, serum of subject P104: serum 16 wpi of vaccinated patient P104; for Epitope mapping, fine specificity analysis, serum of subject P105: serum 16 wpi of vaccinated patient P105; for Epitope mapping, fine specificity analysis, serum of subject P106: serum 16 wpi of vaccinated patient P106; for Epitope mapping, fine specificity analysis, serum of subject P107: serum 16 wpi of vaccinated patient P107; for Epitope mapping, fine specificity analysis, serum of subject P108: serum 16 wpi of vaccinated patient P108; for Epitope mapping, fine specificity analysis, serum of subject P109: serum 16 wpi of vaccinated patient P109; for Epitope mapping, fine specificity analysis, serum of subject P201: serum 16 wpi of vaccinated patient P201; for Epitope mapping, fine specificity analysis, serum of subject P202: serum 16 wpi of vaccinated patient P202; for Epitope mapping, fine specificity analysis, serum of subject P203: serum 16 wpi of vaccinated patient P203; for Epitope mapping, fine specificity analysis, serum of subject P204: serum 16 wpi of vaccinated patient P204; for Epitope mapping, fine specificity analysis, serum of subject P205: serum 16 wpi of vaccinated patient P205; for Epitope mapping, fine specificity analysis, serum of subject P206: serum 16 wpi of vaccinated patient P206; for Epitope mapping, fine specificity analysis, serum of subject P207: serum 16 wpi of vaccinated patient P207; for Epitope mapping, fine specificity analysis, serum of subject P208: serum 16 wpi of vaccinated patient P208; for Epitope mapping, fine specificity analysis, serum of subject P209: serum 16 wpi of vaccinated patient P209; for Epitope mapping, fine specificity analysis, serum of subject P210: serum 16 wpi of vaccinated patient P210
[3] = antisera of macaques given UBI AD Vaccine 150 μg/dose, 9 WPI
[4] = antisera of macaques given UBI AD Vaccine 150 μg/dose, 15 WPI
[5] = antisera of macaques given UBI AD Vaccine 750 μg/dose, 9 WPI
[6] = antisera of macaques given UBI AD Vaccine 750 μg/dose, 15 WPI

Substance	Reactivity of antisera with peptide (specificity analysis ELISA) [1, 3]	Reactivity of antisera with peptide (specificity analysis ELISA) [1, 4]	Reactivity of antisera with peptide (specificity analysis ELISA) [1, 5]	Reactivity of antisera with peptide (specificity analysis ELISA) [1, 6]	Epitope mapping, fine specificity analysis, serum of subject P101 [2]	Epitope mapping, fine specificity analysis, serum of subject P102 [2]	Epitope mapping, fine specificity analysis, serum of subject P103 [2]	Epitope mapping, fine specificity analysis, serum of subject P104 [2]	Epitope mapping, fine specificity analysis, serum of subject P105 [2]	Epitope mapping, fine specificity analysis, serum of subject P106 [2]	Epitope mapping, fine specificity analysis, serum of subject P107 [2]	Epitope mapping, fine specificity analysis, serum of subject P108 [2]	Epitope mapping, fine specificity analysis, serum of subject P109 [2]	Epitope mapping, fine specificity analysis, serum of subject P201 [2]	Epitope mapping, fine specificity analysis, serum of subject P202 [2]	Epitope mapping, fine specificity analysis, serum of subject P203 [2]	Epitope mapping, fine specificity analysis, serum of subject P204 [2]	Epitope mapping, fine specificity analysis, serum of subject P205 [2]	Epitope mapping, fine specificity analysis, serum of subject P206 [2]	Epitope mapping, fine specificity analysis, serum of subject P207 [2]	other results
18 (EFRHDSGYEV; PEPTIDE (1)..(10) Abeta 3-12 or APP 770(E674-V683); listed as Homo sapiens) [compound 18]	0.047	0.060	0.042	0.052	0	0	0	0	0	0	0	0	0	0	0	0	0	0	0	0	Epitope mapping, fine specificity analysis, serum of subject P208 [2]: 0; Epitope mapping, fine specificity analysis, serum of subject P209 [2]: 0; Epitope mapping, fine specificity analysis, serum of subject P210 [2]: 0
15 (KMDAEFRHDS; PEPTIDE (1)..(10) Abeta -2-8 or APP 770(K670-S679); listed as Homo sapiens) [compound 15]	0.065	0.031	0.069	0.062	94	0	0	0	0	0	0	0	0	2	7	0	12	0	0	0	Epitope mapping, fine specificity analysis, serum of subject P208 [2]: 0; Epitope mapping, fine specificity analysis, serum of subject P209 [2]: 0; Epitope mapping, fine specificity analysis, serum of subject P210 [2]: 52
19 (FRHDSGYEVH; PEPTIDE (1)..(10) Abeta 4-13 or APP 770(F675-H684); listed as Homo sapiens) [compound 19]	0.085	0.076	0.066	0.096	0	0	0	0	0	0	0	0	0	0	0	0	0	0	0	0	Epitope mapping, fine specificity analysis, serum of subject P208 [2]: 0; Epitope mapping, fine specificity analysis, serum of subject P209 [2]: 0; Epitope mapping, fine specificity analysis, serum of subject P210 [2]: 0
22 (DSGYEVHHQK; PEPTIDE (1)..(10) Abeta 7-16 or APP 770(D678-K687); listed as Homo sapiens) [compound 22]	0.270	0.289	0.405	0.197	214	0	0	0	0	0	0	0	0	0	0	0	0	0	0	0	Epitope mapping, fine specificity analysis, serum of subject P208 [2]: 0; Epitope mapping, fine specificity analysis, serum of subject P209 [2]: 0; Epitope mapping, fine specificity analysis, serum of subject P210 [2]: 0
29 (HQKLVFFAED; PEPTIDE (1)..(10) Abeta 14-23 or APP 770(H685-D694); listed as Homo sapiens) [compound 29]	0.050	0.058	0.047	0.050	0	0	0	0	0	0	0	0	0	0	0	0	0	0	0	0	Epitope mapping, fine specificity analysis, serum of subject P208 [2]: 0; Epitope mapping, fine specificity analysis, serum of subject P209 [2]: 0; Epitope mapping, fine specificity analysis, serum of subject P210 [2]: 0
10 (EISEVKMDAE; PEPTIDE (1)..(10) Abeta -7-3 or APP 770(E665-E674); listed as Homo sapiens) [compound 10]	0.060	0.056	0.064	0.053	0	0	0	0	0	0	0	0	0	0	0	0	0	0	0	0	Epitope mapping, fine specificity analysis, serum of subject P208 [2]: 0; Epitope mapping, fine specificity analysis, serum of subject P209 [2]: 0; Epitope mapping, fine specificity analysis, serum of subject P210 [2]: 0
30 (QKLVFFAEDV; PEPTIDE (1)..(10) Abeta 15-24 or APP 770(Q686-V695); listed as Homo sapiens) [compound 30]	0.043	0.055	0.062	0.059	0	0	0	0	0	0	0	0	0	0	0	0	0	0	0	0	Epitope mapping, fine specificity analysis, serum of subject P208 [2]: 0; Epitope mapping, fine specificity analysis, serum of subject P209 [2]: 0; Epitope mapping, fine specificity analysis, serum of subject P210 [2]: 0
